# Measured values published in patent US8952192B2, “Phosphorylated and branched dihydroxy-pentane-dione (DPD) analogs as quorum sensing inhibitors in bacteria” (University of Maryland, College Park, priority 2011, dated 2015).
# Like-named read-outs stand apart in the source and are kept apart here.
# What was measured:
# [1] = test system: lsr expression in E. coli (lsr-lacZ reporter strains); assay: QS response (lsr expression): AI-2 dependent β-galactosidase production, Miller assay; format: cell-based, Escherichia coli; settings: for inhibition of AI-2-mediated lsr expression (β-galactosidase), in words: E. coli LW7 pLW11 (luxS−), 20 μM AI-2 (DPD) + 20 μM analog; for effect on native lsr expression (QS response): E. coli ZK126 pLW11 (luxS+), cells produce their own AI-2; for IC50: Escherichia coli
# Protocol: (§1) The panel of C1-alkyl analogs was screened to identify QS modulators in the enteric bacteria E. coli and S. typhimurium. Transcription of the QS associated lsr operon, by using lsr-lacZ reporter strains (Table 2) which produce β-galactosidase in response to added AI-2 was monitored. In order to first establish if the analogs were agonists or antagonists in the QS circuit, the analogs were incubated with E. coli LW7 pLW11 and S. typhimurium MET715 (FIG. 19a-b) both of which are luxS^−. None of the analogs, except ethyl-DPD behaved as agonists for lsr expression. Previous studies investigating AI-2 antagonism in P. aeruginosa or in S. typhimurium were carried out using chemically synthesized AI-2 added to luxS^− cells. […] The same trends were obtained by adding a 1:1 ratio of enzymatically synthesized AI-2 and DPD analogs to the luxS^− strains E. coli LW7 pLW11 and S. typhimurium MET715 (FIG. 11a-b). None of the tested DPD analogs were bacteriocidal or bacteriostatic as the OD600 values of E. coli ZK126 pLW11 and S. typhimurium MET708 in the presence and absence of the analogs were similar (FIG. 10). Though the QS circuitry of the enteric organisms, E. coli and S. typhimurium are homologous they respond differently to the DPD analogs. The E. coli QS circuitry is susceptible to being silenced by a variety of DPD analogs of different shapes and sizes whereas in S. typhimurium, only a handful of DPD analogs could antagonize the action of AI-2. […] Isobutyl-DPD emerged as an effective and non-species-specific quencher; causing significant lsr expression knockdowns in both E. coli and S. typhimurium.
# (§2) The QS response indicated by lsr gene expression was analyzed in pure culture studies by culturing E. coli LW7 pLW11, E. coli ZK126 pLW11 and S. typhimurium MET708, S. typhimurium MET715 overnight in LB medium supplemented with appropriate antibiotics as stated previously. These cells were then diluted into fresh LB medium (with antibiotics) and grown to an OD600 of 0.8-1.0 at 30° C., 250 rpm. Cells were then collected by centrifugation at 10,000×g for 10 minutes, and resuspended in 10 mM phosphate buffer. AI-2 (20 μM) and the respective analog (20 μM) were added to the E. coli or S. typhimurium suspension for 2 hours at 37° C. AI-2 dependent β-galactosidase production was quantified by the Miller assay.
# (§3) The QS response indicated by lsr gene expression was analyzed in pure culture studies by culturing E. coli LW7 pLW11 and S. typhimurium MET715 overnight at 30° C. in LB medium supplemented with appropriate antibiotics as stated previously. These cells were then diluted into fresh LB medium (with antibiotics) and grown to an OD600 of 0.4-0.8 at 37° C., 250 rpm. Cells were then collected by centrifugation at 10,000×g for 10 min and resuspended in 10 mM phosphate buffer. AI-2 (20 μM) and the respective analog (20 μM) were added to the E. coli or S. typhimurium suspension for 2 h at 37° C. AI-2 dependent β-galactosidase production was quantified by the Miller assay.
# (§4) The QS response indicated by lsr gene expression was analyzed in pure culture studies by culturing E. coli LW7 pLW11, E. coli ZK126 pLW11 and S. typhimurium MET708, S. typhimurium MET715 overnight in LB medium individually supplemented with appropriate antibiotics, as specified above. These cells were diluted into fresh LB medium (with antibiotics) and grown to an OD600 of 0.8-1.0 at 30° C., 250 rpm. Cells were collected by centrifugation at 10,000×g for 10 minutes, and resuspended in 10 mM phosphate buffer. AI-2 (20 μM) and the respective analog (20 μM) were added to the E. coli or S. typhimurium suspension for 2 hours at 37° C. AI-2 dependent β-galactosidase production was quantified by the Miller assay.
# LsrK = molecular target: T1, LsrK (Escherichia coli, UniProt P77432); assay: In vitro phosphorylation of analogs by LsrK (TLC, autoradiography); format: biochemical, E. coli; settings: for phosphorylation by E. coli LsrK: incubation with LsrK in vitro for one hour (Example 6)
# T1 construct: made in house; host or cells: E. coli BL21
# Protocol: LsrK was purified and from E. coli BL21 pET200-LsrK as described before. Phosphorylated analogs were synthesized by incubating 1 μM) LsrK with 40 μM ATP (Roche), […] of [γ-^32P] […] A 5 μL aliquot was then spotted onto a cellulose TLC plate (Selecto Scientific). The plate was developed using 0.8 M LiCl as the solvent, air dried and developed via autoradiography.
# LsrK was purified from E. coli BL21 pET200-LsrK as described before. Phosphorylated analogs were synthesized by incubating (1 μM) LsrK with (40 μM) ATP (Roche), ([…]) of [P^32] […] An aliquot (2.5 μL) was then spotted onto a cellulose TLC plate (Selecto Scientific). The plate was developed using 0.8 M LiCl as the solvent, air dried and developed via autoradiography.
# [2] = test system: lsr expression in S. typhimurium (lsr-lacZ reporter strains); assay: QS response (lsr expression): AI-2 dependent β-galactosidase production, Miller assay; format: cell-based, Salmonella typhimurium; settings: for effect on AI-2-mediated lsr expression (β-galactosidase), in words: S. typhimurium MET715 (luxS−), 20 μM AI-2 (DPD) + 20 μM analog
# Protocol: as §1, §2, §3, §4
# V. harveyi = assay: DPD analogs and representative bacterial species affected (Table 1); format: cell-based; design: key: x: DPD Analogs and representative bacterial species affected
# E. coli = assay: as above; format: cell-based; design: key: x: DPD Analogs and representative bacterial species affected
# [3] = test system: pre-formed E. coli biofilms (K-12 MG1655); assay: Effects on pre-formed E. coli biofilms (microfluidic flow cell, COMSTAT, optical density); format: cell-based
# Protocol: (§5) The E. coli biofilms were formed using the strain K-12 MG1655 ATCC(47076). P. aeruginosa biofilms were formed using wild type strain PAO1. For both strains, overnight cultures were diluted to an OD600 of 0.25, introduced into the microfluidic channel, and incubated with no flow at 37° C. for 2 h. LB (Luria Bertani) growth medium was then continuously flowed into the device at a rate of 10 μL/hr. As needed, this medium was supplemented with various concentrations of analog or antibiotic at specified times. In studies of biofilm inhibition, after 2 hours of cell incubation, the analog diluted in LB medium is flown into the microfluidic channel for 48 hours at 10 μL/hr. In studies of effects on pre-formed biofilms, LB is introduced over the cells at 10 μL/hr for a period of 36 to 48 hours to yield stable biofilms. Then, the analog or analog-antibiotic combination was introduced for an additional 36 to 48 hours.
# (§6) Biofilms were stained in situ for microscopy. They were first treated with a Live/Dead bacterial labeling kit (Invitrogen #L7012) in which two labeling components were mixed in a 1:1 ratio to a final volume of 10 μL. The dye was introduced into the channel at 10 μL/hr, the same flow rate as during biofilm growth. This treatment was then followed by 10 μL/hr of a 100 μg/mL calcofluor (Fluorescence Brightener 28, Sigma #F3543) solution for labeling polysaccharides contained in the biofilm matrix. The dyes are fixed by flowing in 3% paraformaldehyde at the same flow rate.
# (§7) Labeled samples are imaged using a confocal microscope (Zeiss LSM710). For unpatterned coverslips, Z-stacks were obtained at 7 points in each microfluidic channel, each stack was comprised of 150 slices. For patterned coverslips used while measuring the optical density of the biofilms, two stacks were obtained in each channel (i.e. one at each pinhole). The image stacks were analyzed using COMSTAT, which provides morphological characteristics. Average biofilm thickness and biomass were averaged over the image stacks obtained at each of these 7 data points in the microfluidic channel. Additionally, surface reconstructions of the biofilms were created using Imaris (Bitplane) to aid in visualization of the resulting structures.
# (§8) The data corresponding to the change in optical density of the biofilms were obtained from the photodiodes using the standard methodologies. Data for each channel (the average of the response of the two photodiodes) was normalized with respect to the optical density at 48 hours; this method reflects that as of 48 hours, the biofilms have been grown under identical conditions although their optical density values may not be identical. Additionally, since the optical density data itself fluctuates as the biofilm grows, the data for each curve was fitted using a Churchill model (Churchill et al, 1972), represented by log N=[f1^−1+f2^−1]^−1 (1)
# [4] = test system: pre-formed P. aeruginosa biofilms (PAO1); assay: Effects on pre-formed P. aeruginosa biofilms (microfluidic flow cell, COMSTAT, optical density); format: cell-based; settings: gentamicin alone
# Protocol: as §5, §6, §7, §8
# T1 sequence (P77432 whole entry): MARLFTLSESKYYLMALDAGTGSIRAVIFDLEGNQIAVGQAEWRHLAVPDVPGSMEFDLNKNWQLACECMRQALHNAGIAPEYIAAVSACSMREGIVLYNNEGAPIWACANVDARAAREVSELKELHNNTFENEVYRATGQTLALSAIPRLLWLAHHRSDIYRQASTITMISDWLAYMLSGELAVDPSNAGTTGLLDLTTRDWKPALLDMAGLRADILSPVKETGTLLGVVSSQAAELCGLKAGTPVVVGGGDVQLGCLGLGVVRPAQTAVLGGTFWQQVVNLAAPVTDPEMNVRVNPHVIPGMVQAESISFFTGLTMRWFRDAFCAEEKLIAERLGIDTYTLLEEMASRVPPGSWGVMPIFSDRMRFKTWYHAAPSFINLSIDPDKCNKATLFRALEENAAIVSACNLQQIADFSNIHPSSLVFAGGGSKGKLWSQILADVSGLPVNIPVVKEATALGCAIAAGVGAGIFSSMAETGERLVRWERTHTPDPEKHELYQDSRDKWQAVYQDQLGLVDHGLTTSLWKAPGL
compound,measurement,setting,value
"O=C(C(=O)C(O)CO)c1ccc(F)cc1 (centres unmarked) [fluorophenyl, 4-fluorophenyl DPD]","inhibition of AI-2-mediated lsr expression (β-galactosidase), in words",[1],no
O=C(C(=O)C1CC1)C(O)CO (centres unmarked) [cyclopropyl-DPD],effect on native lsr expression (QS response),[1],neither an lsr agonist nor antagonist
same,phosphorylation by LsrK,LsrK; incubation with LsrK and excess ATP for 2 hours (Example 1),phosphorylated
"CC(=O)C(=O)C(O)CO (centres unmarked) [AI-2, 4,5-dihydroxy-2,3-pentanedione, reference compound]",more LacZ present than without AI-2,"[2]; S. typhimurium MET715 (LuxS−), 20 μM AI-2 added",about 30%
"CC(=O)OCC(OC(C)=O)C(=O)C(=O)CC(C)C (centres unmarked) [Compound 23, 6-methyl-3,4-dioxoheptane-1,2-diyl diacetate]","inhibition of AI-2-mediated lsr expression (β-galactosidase), in words",[1],as effective QS quenchers as the unprotected isobutyl DPD
CCCCCC(=O)C(=O)[C@@H](O)CO [Pentyl DPD],bacterial species affected: V. harveyi,V. harveyi,x
same,bacterial species affected: E. coli,E. coli,x
2-methylpropyl-DPD,effect on native lsr expression (QS response),[1],substantial reduction
CC(C)(C)CC(=O)C(=O)C(O)CO (centres unmarked) [neopentyl-DPD],effect on native lsr expression (QS response),[1],substantial reduction
"CCCC(=O)OCC(OC(=O)CCC)C(=O)C(=O)CC(C)C (centres unmarked) [Compound 24, 6-methyl-3,4-dioxoheptane-1,2-diyl dibutyrate]","inhibition of AI-2-mediated lsr expression (β-galactosidase), in words",[1],as effective QS quenchers as the unprotected isobutyl DPD
deoxy-isobutyl-DPD,effect on native lsr expression (QS response),[1],unable to silence the lsr operon
"CCCCC(=O)OCC(OC(=O)CCCC)C(=O)C(=O)CC(C)C (centres unmarked) [Compound 25, 6-methyl-3,4-dioxoheptane-1,2-diyl dipentanoate]","inhibition of AI-2-mediated lsr expression (β-galactosidase), in words",[1],reduced
"CCCCCC(=O)OCC(OC(=O)CCCCC)C(=O)C(=O)CC(C)C (centres unmarked) [Compound 26, 6-methyl-3,4-dioxoheptane-1,2-diyl dihexanoate]","inhibition of AI-2-mediated lsr expression (β-galactosidase), in words",[1],abrogated
"O=C(C(=O)C1CCCC1)C(O)CO (centres unmarked) [Cyclopentyl-DPD, Cyclopentyl DPD]",reduction in lsr promoter activity,"[1]; E. coli LW7, 20 μM DPD + 20 uM analog",over 60%
same,"inhibition of AI-2-mediated lsr expression (β-galactosidase), in words",[1],inhibit lsr expression
same,IC50,"[1]; Example 6, read-out: IC50 (lsr expression in E. coli)",2400 nM
same,IC50,"[1]; concentration reducing lsr expression (β-galactosidase production) to 50% in the presence of 20 μM exogenously added synthetic DPD, read-out: IC50 of analog (nM) to inhibit QS in E. coli",2440 nM
same,"effect on AI-2-mediated lsr expression (β-galactosidase), in words",[2],increased expression
same,phosphorylation by E. coli LsrK,LsrK,significantly phosphorylated
same,bacterial species affected: E. coli,E. coli,x
"CCCCC(=O)OCC(OC(=O)CCCC)C(=O)C(C)=O (centres unmarked) [Compound 21, 3,4-dioxopentane-1,2-diyl dipentanoate]",induction of lsr expression (β-galactosidase),"[2]; S. typhimurium MET715 (LuxS−), 20 μM compound, no AI-2 added",as effective as DPD
"O=C(C(=O)C1CCCCCC1)C(O)CO (centres unmarked) [Cycloheptyl-DPD, Cycloheptyl DPD]","inhibition of AI-2-mediated lsr expression (β-galactosidase), in words",[1],nor did they affect LsrR-controlled transcription
same,phosphorylation by E. coli LsrK,LsrK,Neither Cycloheptyl-DPD nor the aromatic analogs were phosphorylated
same,phosphorylation by E. coli LsrK,LsrK; listed as cycloheptyl,not phosphorylated
gentamicin [reference compound],drop of biofilm biomass,[3]; gentamicin 5 μg/ml without AI-2 analog,~50%
same,average biofilm biomass,"[3]; gentamicin 5 μg/ml without AI-2 analog, LB only 8.5 μm^3/μm^2",3.5 μm^3/μm^2
same,average biofilm thickness,"[3]; gentamicin 5 μg/ml without AI-2 analog, LB only 12 μm",10 μm
same,"course of biofilm optical density after 48 h, in words","[3]; gentamicin alone, continuous optical density measurement",slowed the progress of biofilm maturation
same,biofilm reduction,[4],~0%
same,"course of biofilm optical density after 48 h, in words",[4]; continuous optical density measurement,slowed the progress of biofilm maturation
"O=C(C(=O)C(O)CO)c1ccc([N+](=O)[O-])cc1 (centres unmarked) [Nitrophenyl-DPD, 4-nitrophenyl DPD]","inhibition of AI-2-mediated lsr expression (β-galactosidase), in words",[1],no
same,"effect on AI-2-mediated lsr expression (β-galactosidase), in words",[2],increased QS response
CH2-cyclohexyl-DPD,"inhibition of AI-2-mediated lsr expression (β-galactosidase), in words",[1],attenuated lsr expression in E. coli to a lesser extent
same,phosphorylation by E. coli LsrK,LsrK,weakly phosphorylated
same,phosphorylation by E. coli LsrK,LsrK; listed as CH2-cyclohexyl,not phosphorylated
